Tests used:
[1] = tested on: GVHD; assay: Graft-versus-host disease (GVHD) model, 15 days; assay type: in vivo; conditions: for GVHD pathology (clinical pathology score): 10 mg/kg then 2 mg/kg/day, day 15
Description: (§1) Splenocytes and lymphocytes were harvested from C57Bl/6 mice. In some experiments, T cells were purified by negative selection using a Pan-T kit (Miltenyi Biotec) and stained with 2 µM carboxyfluorescein succinimidyl ester (CFSE) (Life Technologies). At least 2×10^7 purified T cells or approximately 1×10^8 pooled splenocytes and lymphocytes were injected i.v. into B6D2F1 host mice to initiate the GVH response. GVHD pathology was assessed on a scale of 0 to 3 (0 = normal, 1 = moderate morbidity, 2 = severe morbidity, 3 = death) according to the following five criteria: weight-loss, posture, activity, fur texture and death and reported as a Clinical GVHD Score.
(§2) Host mice were treated daily with vehicle, 10-Cl-BBQ or BBQ analogues by i.p. injection. The vehicle consisted of a mixture of 6.7% anisole and peanut oil. Mice treated with a single i.p. dose of 15 µg TCDD/kg body weight in the same vehicle were used as positive controls.
Figure 4 10-Cl-BBQ suppresses GVHD in an AhR-dependent manner. A) B6D2F1 host mice were injected with wild-type (WT) or AhR-deficient (AhR^−/−) splenocytes to initiate the GVH response; mice were given 10-Cl-BBQ or vehicle treatments daily for 15 days. A single loading dose of 10 mg/kg 10-Cl-BBQ was given at the time of donor cell injection and a maintenance dose of 2 mg/kg was given every day thereafter until the end of the experiment. The progression of GVHD was monitored and a clinical pathology score as defined in Methods was calculated. GVHD was suppressed by 10-Cl-BBQ only if the donor cells expressed AhR. In a separate study, B6D2F1 host mice in groups of 6 were injected with splenocytes from C57Bl/6 mice to initiate the GVH response, and treated with 10-Cl-BBQ or vehicle daily for 15 days as in (A). TCDD (15 µg/kg) was given to an additional group of 6 mice on day 0 as a positive control. […] The donor cells were identified in the host spleen as the H-2D^d negative population.* = p<0.05 vs vehicle control. TEXT PRINTED IN THE PICTURE: (C) TCDD: 17 | (C) 10-Cl-BBQ: 11 | (E) TCDD: 29 | (E) 10-Cl-BBQ: 35 DOUBTS OF THE COPYIST ABOUT THIS PICTURE: Panels C and E: the numbers inside the flow cytometry plots are printed without any measure or unit, so they are copied as bare numbers (plot axes: CD44 vs CD45RB in C, CD19 vs H-2D^d in E). / The Vehicle control plots also print numbers (C: 36; E: 2). They are not listed in lines because Vehicle is a control, not a substance.

[2] = tested on: donor CD4+ T cells; assay: AhR-Treg phenotype of alloactivated donor CD4+ T cells 48 h after initiating the GVH response; assay type: in vivo, B6D2F1 host mice
Description: as §1, §2
Antibodies to CTLA-4, Foxp3, ICOS, CD62L, CD25, CD19, CD44) and a fixable viability dye were purchased from eBiosciences. Additional antibody reagents included CD4 and CD8 (Life Technologies); H-2D^d (Biolegend) and CD45RB (PharMingen). After surface staining, the cells were fixed and permeabilized with Cytofix/cytoperm (BD Biosciences) for intracellular CTLA-4 stain. The flow cytometry data were acquired on an FC500 instrument (Beckman Coulter) and the data were analyzed using WinList 7.0 (Verity Software House). Fluorescence minus one (FMO) controls were used for setting histogram gates during the analysis.
Figure 3 10-Cl-BBQ induces an AhR-dependent Treg phenotype 48 h after initiating the GVH response. On day 0, B6D2F1 host mice in groups of 5 were injected with CFSE-labeled C57Bl/6 T cells and given 15 mg/kg 10-Cl-BBQ, 15 µg/kg TCDD or vehicle by i.p. injection. At 24 h, an additional dose of 7 mg/kg 10-Cl-BBQ or vehicle was given. […] Treatment mean ± SEM is shown in the quadrant of interest. […] C) AhR-dependent induction of the donor Treg phenotype by 10-Cl-BBQ. On day 0, B6D2F1 host mice in groups of 5 were injected with donor T cells obtained from AhR^+/+ or AhR^−/− C57Bl/6 mice. Host mice were treated with 2 mg/kg10-Cl-BBQ or vehicle immediately following donor cell transfer and again at 24 hr. […] D) Dose-dependent induction of Treg phenotype by 10-Cl-BBQ. On day 0, B6D2F1 host mice in groups of 3–5 were injected with C57Bl/6 T cells. Mice were immediately treated with 0, 0.4, 2 or 10 mg/kg 10-Cl-BBQ and again on day 1. On day 2, expression of markers associated with the AhR-Treg phenotype increased as the dose of 10-Cl-BBQ increased. E) In the same mice as in D, lymph nodes were harvested and analyzed for expression of genes that were previously shown to increase under the same GVH conditions with TCDD treatment (13). […] Changes in gene expression were calculated relative to the β-actin gene, and the fold-induction was calculated by the ΔΔCt method using the vehicle-treated samples as a control. * = p<0.05 relative to vehicle treatment. […]

For O=c1c2cccc3cccc(c32)c2nc3ccc(Cl)cc3n12 [10-Cl-BBQ, 10-chloro-7H-benzimidazo[2,1-a]benzo[de]isoquinolin-7-one], the “GVHD pathology (clinical pathology score)” value ([1]; AhR-deficient donor cells) was “not affected”, the “GVHD pathology (clinical pathology score)” value ([1]; AhR-wild type donor cells) was “significantly reduced” and the overt toxicity ([1]; daily treatment during the GVH response) was “without overt toxicity”. For the same compound, the “engraftment of donor cells in host spleen” value ([1]; day 15, 10 mg/kg then 2 mg/kg daily) was “significantly reduced the engraftment of donor cells”, the “changes in parameters associated with AhR-Tregs” value ([2]; 0.4 mg/kg/day for two days) was “failed to induce significant changes” and the “induction of the Treg phenotype with AhR-deficient donor T cells” value ([2]; AhR−/− donor T cells, 2 mg/kg at 0 and 24 hr, day 2) was “failed to induce the Treg phenotype”. For the same compound, the “minimum effective dose to induce Tregs” value ([2]; i.p. for two days after initiation of the GVH response) was 2.0 mg/kg/day.
